# Measurements reported in PMC4893628, “Chalcone-based Selective Inhibitors of a C4 Plant Key Enzyme as Novel Potential Herbicides” (Scientific Reports, 2016).
# Like-named read-outs stand apart in the source and are kept apart here.
# Assays:
# Amaranthus retroflexus = assay: In planta growth experiment, A. retroflexus; type: in vivo
# Summary of the method: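 Single top spray of 3 mM compound (2.4% DMSO, 0.1% Tween) onto two-leaf-stage plants in a climate chamber (22/20 °C, 16 h/8 h); controls got vehicle only.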
# [1] = test system: Escherichia coli K-12 MG1655; assay: Bacterial growth in microscale cultivation, E. coli; type: cell-based; conditions: relative to control; for activity at 0.1 µM / activity at 1 µM / activity at 10 µM: Escherichia coli
# Summary of the method: (§1)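 In a BioLector microscale system shaken at 1200 rpm, growth was tracked by backscatter at 620 nm, and final signal, growth rate (h⁻¹) and lag-phase length were scored against DMSO-only controls. Starting OD600 was 0.5, or 0.25 for B. subtilis. Inhibitors came from DMSO stocks, with trans-chalcone capped at 400 μM and 2'-hydroxychalcone at 100 μM.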
# [2] = test system: Pseudomonas putida KT2440; assay: Bacterial growth in microscale cultivation, P. putida; type: cell-based; conditions: relative to control; for activity at 0.1 µM / activity at 1 µM / activity at 10 µM: Pseudomonas putida
# Summary of the method: as §1
compound,measurement,setting,value
"O=C(/C=C/c1ccc(O)c(O)c1)c1ccc(O)c(O)c1O [Compound 12, 2′,3′,4′,3,4-Pentahydroxy-chalcone]",Influence on plants,"Amaranthus retroflexus; shoots sprayed, 3 mM",Yes
same,dry weight,"Amaranthus retroflexus; six days after treatment, both experiments",significantly reduced
same,activity at 0.1 µM,"[1]; MG1655, complex medium, 0.1 µM, read-out: Final Backscatter",98.5%
same,activity at 0.1 µM,"[1]; MG1655, complex medium, 0.1 µM, read-out: Growth rate",106%
same,activity at 1 µM,"[1]; MG1655, complex medium, 1 µM, read-out: Final Backscatter",100%
same,activity at 1 µM,"[1]; MG1655, complex medium, 1 µM, read-out: Growth rate",100%
same,activity at 10 µM,"[1]; MG1655, complex medium, 10 µM, read-out: Final Backscatter",97.9%
same,activity at 10 µM,"[1]; MG1655, complex medium, 10 µM, read-out: Growth rate",111%
same,activity at 0.1 µM,"[1]; MG1655, minimal medium, 0.1 µM, read-out: Final Backscatter",99.7%
same,activity at 0.1 µM,"[1]; MG1655, minimal medium, 0.1 µM, read-out: Growth rate",99.8%
same,activity at 1 µM,"[1]; MG1655, minimal medium, 1 µM, read-out: Final Backscatter",98.5%
same,activity at 1 µM,"[1]; MG1655, minimal medium, 1 µM, read-out: Growth rate",100%
same,activity at 10 µM,"[1]; MG1655, minimal medium, 10 µM, read-out: Final Backscatter",101%
same,activity at 10 µM,"[1]; MG1655, minimal medium, 10 µM, read-out: Growth rate",104%
same,Lag Phase,"[1]; complex medium, 0.1 µM","108,5%"
same,Lag Phase,"[1]; complex medium, 1 µM","102,8%"
same,Lag Phase,"[1]; complex medium, 10 µM","111,4%"
same,Lag Phase,"[1]; minimal medium, 0.1 µM","99,0%"
same,Lag Phase,"[1]; minimal medium, 1 µM","102,0%"
same,Lag Phase,"[1]; minimal medium, 10 µM","95,1%"
same,activity at 0.1 µM,"[2]; KT2440, complex medium, 0.1 µM, read-out: Final Backscatter",97.8%
same,activity at 0.1 µM,"[2]; KT2440, complex medium, 0.1 µM, read-out: Growth rate",104%
same,activity at 1 µM,"[2]; KT2440, complex medium, 1 µM, read-out: Final Backscatter",98.2%
same,activity at 1 µM,"[2]; KT2440, complex medium, 1 µM, read-out: Growth rate",103%
same,activity at 10 µM,"[2]; KT2440, complex medium, 10 µM, read-out: Final Backscatter",98.6%
same,activity at 10 µM,"[2]; KT2440, complex medium, 10 µM, read-out: Growth rate",99.7%
same,activity at 0.1 µM,"[2]; KT2440, minimal medium, 0.1 µM, read-out: Final Backscatter",92.5%
same,activity at 0.1 µM,"[2]; KT2440, minimal medium, 0.1 µM, read-out: Growth rate",105%
same,activity at 1 µM,"[2]; KT2440, minimal medium, 1 µM, read-out: Final Backscatter",93.6%
same,activity at 1 µM,"[2]; KT2440, minimal medium, 1 µM, read-out: Growth rate",104%
same,activity at 10 µM,"[2]; KT2440, minimal medium, 10 µM, read-out: Final Backscatter",99.3%
same,activity at 10 µM,"[2]; KT2440, minimal medium, 10 µM, read-out: Growth rate",100%
same,Lag Phase,"[2]; complex medium, 0.1 µM","103,3%"
same,Lag Phase,"[2]; complex medium, 1 µM","103,9%"
same,Lag Phase,"[2]; complex medium, 10 µM","105,9%"
same,Lag Phase,"[2]; minimal medium, 0.1 µM","108,8%"
same,Lag Phase,"[2]; minimal medium, 1 µM","106,1%"
same,Lag Phase,"[2]; minimal medium, 10 µM","100,0%"
